{"source": "patent US11642671B2", "about": "“Electrowetting on dielectric (EWOD) device to perform liquid-to-liquid extraction (LLE) of biomolecules and systems and methods for using the EWOD device” (Board of Regents, The University of Texas System, priority 2019, dated 2023)", "experiment": "Multistage LLE (MLLE) of binary dye mixture on EWOD device with IL extractant", "format": "physicochemical", "settings": "binary 1:1 green/yellow dye sample", "description": "The sample phase was prepared by mixing equal amounts of these two dyes. The final concentration of each analyte in the sample mixture formed was 1250 μg/ml for all the EWOD LLE experiments. […]\nFor the LLE process on an EWOD DMF electrode array, the droplets were generated, mixed, and split during the process. […] The on-chip concentration method quantified the yield of the LLE process. […]\nIn order to explore this characteristic of EWOD, MLLE was performed in this study with two cycles of LLE. […] After each cycle of the process, the sample droplet was transported to the concentration measurement electrode, and the voltage measurement was done for absorbance.\nNext, the results of binary separation by MLLE performed on the EWOD device 20 was compared with theoretical values. The theoretical values were calculated from the partition coefficient values of each solute obtained in the manner described above. […]", "data": [{"smiles": "Cc1ccc(Nc2ccc(Nc3ccc(C)cc3S(=O)(=O)[O-])c3c2C(=O)c2ccccc2C3=O)c(S(=O)(=O)[O-])c1.[Na+].[Na+]", "note": "[green dye, acid green 25]", "values": [{"measurement": "green dye extracted after first cycle of LLE on EWOD", "setting": "IL extractant, extraction time 5 minutes", "value": "~50", "unit": "%"}, {"measurement": "initial green dye extracted at the end of the second cycle", "setting": "fresh IL droplet, two MLLE cycles", "value": "~60", "unit": "%"}]}]}
